Our source for the IC50 values is paper PMC12412324, “Design, synthesis, and evaluation of novel pinane-based thiazolidione derivatives with anti-glioblastoma activity” (Journal of Enzyme Inhibition and Medicinal Chemistry, 2025).

Common to all, as to type: cell-based
One assay relates to U251. Put plainly: CCK-8 cell viability assay, U251. Conditions: CCK-8, 72 h, mean ± SD of three independent experiments. How it is done: (§1) The U87MG cell line (catalogue iCell-h224) and U251MG cell line (catalogue iCell-h219) were purchased from iCell Bioscience Inc (Shanghai) cell bank. T98G cell line was obtained from Yining Zhang’s group. All cells were cultured in DMEM supplemented with 10% (v/v) FBS and penicillin-streptomycin in a humidified incubator at 37 °C under 5% CO2. The different compounds were dissolved in DMSO at the concentration of 10 mM and diluted in serum-free medium. The GBM cells were seeded into 96-well microplates at the density of 6000 cells/well and incubated for 24 h. Fresh media supplemented with different concentrations of the compounds were added, and the cells were cultured for 72 h. The CCK-8 reagent (TargetMol, C0005) was added to each well and the cells were incubated for 4 h at 37 °C. […] the absorbance was measured at […] using a microplate reader (Genios Tecan). An untreated control group was included and its viability was set as 100%. IC50 value of the two probes was calculated using GraphPad Prism 5.0.

The test system of a further assay is LO2. Briefly: CCK-8 cytotoxicity, normal human cell line LO2.
In a further assay the test system is T98G. Briefly: CCK-8 cell viability assay, T98G. To be noted: CCK-8, 72 h, mean ± SD of three independent experiments. The procedure: as §1
The test system of another assay is U87. Put plainly: CCK-8 cell viability assay, U87. To be noted: CCK-8, 72 h, mean ± SD of three independent experiments. The procedure:
as §1
(Tetrazolium dyes change colour on reduction, which living cells bring about.)

[1] abbreviates: L02, mean ± SD of three independent experiments.

Each structure is given as a SMILES string. Some results are limits rather than exact numbers.

For orientation: IC50 means the concentration that gives 50% inhibition. High values mean a need for much substance, low ones inhibition by little substance. On to `COc1ccc(C=C2SC(=NN=CC3=CCC4CC3C4(C)C)N(C)C2=O)cc1` (stereo not shown) [C1, 2-(((6,6-Dimethylbicyclo[3.1.1]hept-2-en-2-yl)methylene)hydrazineylidene)-5–(4-methoxybenzylidene)-3-methylthiazolidin-4-one], for which the IC50 was 12.1 ± 0.31 µM in the assay on U251 (Homo sapiens, U-251, 72 h); greater than 50 µM in the assay with LO2 (setting [1]); 9.93 ± 0.11 µM with T98G (Homo sapiens, T98G, 72 h); 13.5 ± 0.43 µM with U87 (Homo sapiens, U-87 MG, 72 h).
In the case of `COc1ccc(C=C2SC(=NN=CC3=CCC4CC3C4(C)C)N(C)C2=O)cc1` (stereo not shown) [C2, 2-(((6,6-Dimethylbicyclo[3.1.1]hept-2-en-2-yl)methylene)hydrazineylidene)-5–(4-methoxybenzylidene)-3-methylthiazolidin-4-one], the IC50 in the assay with U251 is 14 ± 0.71 µM; with LO2 (mean ± SD of three independent experiments), greater than 50 µM; in the assay with T98G, 10.1 ± 0.8 µM; in the assay on U87, 11.2 ± 0.26 µM.
For `CSc1ccc(C=C2SC(=NN=CC3=CCC4CC3C4(C)C)N(C)C2=O)cc1` (stereo not shown) [C3, 2-(((6,6-Dimethylbicyclo[3.1.1]hept-2-en-2-yl)methylene)hydrazineylidene)-3-methyl-5–(4-(methylthio)benzylidene)thiazolidin-4-one], the IC50 was 15.2 ± 0.32 µM in the assay with U251 (Homo sapiens, U-251, 72 h); greater than 50 µM in the assay with LO2 (setting [1]); 16.7 ± 0.67 µM in the assay on T98G (Homo sapiens, T98G, 72 h); 12.3 ± 0.65 µM in the assay with U87 (Homo sapiens, U-87 MG, 72 h).
The like results for `CN1C(=O)C(=Cc2ccc(N(C)C)cc2)SC1=NN=CC1=CCC2CC1C2(C)C` (stereo not shown) [C4, 5–(4-(Dimethylamino)benzylidene)-2-(((6,6-dimethylbicyclo[3.1.1]hept-2-en-2-yl)methylene)hydrazineylidene)-3-methylthiazolidin-4-one] were, in that order, 9.7 ± 0.64 µM, greater than 50 µM, 8.8 ± 0.31 µM and 7.56 ± 0.76 µM.
The like results for `COc1cc(C=C2SC(=NN=CC3=CCC4CC3C4(C)C)N(C)C2=O)ccc1O` (stereo not shown) [C6, 2-(((6,6-Dimethylbicyclo[3.1.1]hept-2-en-2-yl)methylene)hydrazineylidene)-5–(4-hydroxy-3-methoxybenzylidene)-3-methylthiazolidin-4-one] were, in that order, 10.2 ± 0.65 µM, greater than 50 µM, 7.5 ± 0.98 µM and 9.37 ± 0.43 µM.
For `CN1C(=O)C(=Cc2ccc(Cl)cc2)SC1=NN=CC1=CCC2CC1C2(C)C` (stereo not shown) [C7, 5–(4-Chlorobenzylidene)-2-(((6,6-dimethylbicyclo[3.1.1]hept-2-en-2-yl)methylene) hydrazineylidene)-3-methylthiazolidin-4-one] the same measures were 36.8 ± 0.43 µM, greater than 50 µM, 33.4 ± 0.77 µM and greater than 50 µM.
With `CCN(CC)c1ccc(C=C2SC(=NN=CC3=CCC4CC3C4(C)C)N(C)C2=O)cc1` (stereo not shown) [C8, 5–(4-(Diethylamino)benzylidene)-2-(((6,6-dimethylbicyclo[3.1.1]hept-2-en-2-yl)methylene) hydrazineylidene)-3-methylthiazolidin-4-one], the IC50 in the assay on U251 (Homo sapiens, U-251, 72 h) is 27.2 ± 0.62 µM; in the assay on LO2 (setting [1]), greater than 50 µM; with T98G (Homo sapiens, T98G, 72 h), 38.1 ± 0.78 µM; with U87 (Homo sapiens, U-87 MG, 72 h) it was 42.2 ± 0.46 µM.
For `Cc1ccc(O)c(C=C2SC(=NN=CC3=CCC4CC3C4(C)C)N(C)C2=O)c1` (stereo not shown) [C9, 2-(((6,6-Dimethylbicyclo[3.1.1]hept-2-en-2-yl)methylene)hydrazineylidene)-5–(2-hydroxy-5-methylbenzylidene)-3-methylthiazolidin-4-one] the same measures were 36.7 ± 0.32 µM, greater than 50 µM, 32.11 ± 0.21 µM and 34.1 ± 0.57 µM.
For `CN1C(=O)C(=Cc2ccc(O)c(Cl)c2)SC1=NN=CC1=CCC2CC1C2(C)C` (stereo not shown) [C10, 5–(3-Chloro-4-hydroxybenzylidene)-2-(((6,6-dimethylbicyclo[3.1.1]hept-2-en-2-yl)methylene)hydrazineylidene)-3-methylthiazolidin-4-one] the same measures were 8.29 ± 0.78 µM, greater than 50 µM, 8.69 ± 0.17 µM and 9.86 ± 0.09 µM.
For the molecule `COc1ccc(C=C2SC(=NN=CC3=CCC4CC3C4(C)C)N(C)C2=O)cc1O` (stereo not shown) [C11, 2-(((6,6-Dimethylbicyclo[3.1.1]hept-2-en-2-yl)methylene)hydrazineylidene)-5–(3-hydroxy-4-methoxybenzylidene)-3-methylthiazolidin-4-one], the IC50 was 14.8 ± 0.1 µM with U251 (Homo sapiens, U-251, 72 h); greater than 50 µM with LO2 (setting [1]); 12 ± 0.15 µM with T98G (Homo sapiens, T98G, 72 h); 13.6 ± 0.21 µM in the assay on U87 (Homo sapiens, U-87 MG, 72 h).
In the case of `CCOc1cc(C=C2SC(=NN=CC3=CCC4CC3C4(C)C)N(C)C2=O)ccc1O` (stereo not shown) [C12, 2-(((6,6-Dimethylbicyclo[3.1.1]hept-2-en-2-yl)methylene)hydrazineylidene)-5–(3-ethoxy-4-hydroxybenzylidene)-3-methylthiazolidin-4-one], the IC50 was 8.01 ± 0.79 µM in the assay on U251 (Homo sapiens, U-251, 72 h); greater than 50 µM in the assay on LO2 (setting [1]); 7.1 ± 0.51 µM with T98G (Homo sapiens, T98G, 72 h); 9.37 ± 0.35 µM with U87 (Homo sapiens, U-87 MG, 72 h).
The like results for `COc1ccc(C=C2SC(=NN=CC3=CCC4CC3C4(C)C)N(C)C2=O)c(O)c1` (stereo not shown) [C13, 2-(((6,6-Dimethylbicyclo[3.1.1]hept-2-en-2-yl)methylene)hydrazineylidene)-5–(2-hydroxy-4-methoxybenzylidene)-3-methylthiazolidin-4-one] were, in that order, 6.65 ± 0.75 µM, greater than 50 µM, 5.54 ± 0.98 µM and 5.71 ± 0.23 µM.
As for `CN1C(=O)/C(=C\c2ccc(O)cc2F)SC1NN=CC1=CCC2CC1C2(C)C` (stereo not shown) [C14, 2–(2-((6,6-Dimethylbicyclo[3.1.1]hept-2-en-2-yl)methylene)hydrazineyl)-5-((E)-2-fluoro-4-hydroxybenzylidene)-3-methylthiazolidin-4-one], the IC50 in the assay with U251 (Homo sapiens, U-251, 72 h) was 11.6 ± 0.89 µM; in the assay on LO2 (setting [1]), greater than 50 µM; in the assay on T98G (Homo sapiens, T98G, 72 h), 14.8 ± 0.34 µM; in the assay with U87 (Homo sapiens, U-87 MG, 72 h), 14.4 ± 0.73 µM.
The like results for `Cc1cc(O)ccc1/C=C1/SC(NN=CC2=CCC3CC2C3(C)C)N(C)C1=O` (stereo not shown) [C15, 2–(2-((6,6-Dimethylbicyclo[3.1.1]hept-2-en-2-yl)methylene)hydrazineyl)-5-((E)-4-hydroxy-2-methylbenzylidene)-3-methylthiazolidin-4-one] were, in that order, 9.01 ± 0.34 µM, greater than 50 µM, 7.63 ± 0.65 µM and 9.12 ± 0.43 µM.
The like results for `Cc1cc(/C=C2/SC(NN=CC3=CCC4CC3C4(C)C)N(C)C2=O)ccc1O` (stereo not shown) [C16, 2–(2-((6,6-Dimethylbicyclo[3.1.1]hept-2-en-2-yl)methylene)hydrazineyl)-5-((E)-4-hydroxy-3-methylbenzylidene)-3-methylthiazolidin-4-one] were, in that order, 7.14 ± 0.11 µM, greater than 50 µM, 6.63 ± 0.32 µM and 5.83 ± 0.56 µM.
The like results for `COc1cc(O)ccc1/C=C1/SC(NN=CC2=CCC3CC2C3(C)C)N(C)C1=O` (stereo not shown) [C17, 2–(2-((6,6-Dimethylbicyclo[3.1.1]hept-2-en-2-yl)methylene)hydrazineyl)-5-((E)-4-hydroxy-2-methoxybenzylidene)-3-methylthiazolidin-4-one] were, in that order, 6.23 ± 0.41 µM, greater than 50 µM, 5.1 ± 0.26 µM and 9.18 ± 0.2 µM.
